Source: ChEMBL document CHEMBL4699440, “Comprehensive review on the anti-bacterial activity of 1,2,3-triazole hybrids” (Eur J Med Chem, 2019)
In brackets after ≈: the same amount, converted by molar mass.

What was measured:
HepG2 = experiment: Anticancer activity against human HepG2 cells by MTT assay; type: functional, cell-based
Geotrichum candidum = experiment: Antifungal activity against Geotrichum candidum RCMB-05097 assessed as diameter of inhibition zone at 5 mg/ml by diffusion technique; type: functional; details: read-out: DIZ
Escherichia coli [1] = experiment: Antibacterial activity against Escherichia coli RCMB-010052 assessed as diameter of inhibition zone at 5 mg/ml by diffusion technique; type: functional; details: read-out: DIZ
Aspergillus fumigatus = experiment: Antifungal activity against Aspergillus fumigatus RCMB-02568 assessed as diameter of inhibition zone at 5 mg/ml by diffusion technique; type: functional; details: read-out: DIZ
Staphylococcus aureus [2] = experiment: Antibacterial activity against Staphylococcus aureus RCMB-010010 assessed as diameter of inhibition zone at 5 mg/ml by diffusion technique; type: functional; details: read-out: DIZ
Bacillus cereus = experiment: Antibacterial activity against Bacillus cereus RCMB-010067 assessed as diameter of inhibition zone at 5 mg/ml by diffusion technique; type: functional; details: read-out: DIZ
Pseudomonas aeruginosa [3] = experiment: Antibacterial activity against Pseudomonas aeruginosa RCMB-010043 assessed as diameter of inhibition zone at 5 mg/ml by diffusion technique; type: functional; details: read-out: DIZ
Candida albicans [4] = experiment: Antifungal activity against Candida albicans RCMB-05036 assessed as diameter of inhibition zone at 5 mg/ml by diffusion technique; type: functional; details: read-out: DIZ
[5] = tested on: Syncephalastrum racemosum; experiment: Antifungal activity against Syncephalastrum racemosum RCMB-05922 assessed as diameter of inhibition zone at 5 mg/ml by diffusion technique; type: functional; details: read-out: DIZ
Staphylococcus aureus [6] = experiment: Antibacterial activity against Staphylococcus aureus ATCC 9144 incubated for 24 hrs by broth dilution method; type: functional
Proteus vulgaris [7] = experiment: Antibacterial activity against Proteus vulgaris ATCC […] incubated for 24 hrs by broth dilution method; type: functional
Escherichia coli [8] = experiment: Antibacterial activity against Escherichia coli ATCC 25922 incubated for 24 hrs by broth dilution method; type: functional
Bacillus spizizenii [9] = experiment: Antibacterial activity against Bacillus subtilis ATCC 6633 incubated for 24 hrs by broth dilution method; type: functional
Pseudomonas aeruginosa [10] = experiment: Antibacterial activity against Pseudomonas aeruginosa MTCC 424 incubated for 24 hrs by two-fold serial dilution method; type: functional
Bacillus subtilis = experiment: Antibacterial activity against Bacillus subtilis MTCC 441 incubated for 24 hrs by two-fold serial dilution method; type: functional
Staphylococcus aureus [11] = experiment: Antibacterial activity against Staphylococcus aureus MTCC 7443 incubated for 24 hrs by two-fold serial dilution method; type: functional
Candida albicans [12] = experiment: Antifungal activity against Candida albicans MTCC 227 incubated for 2 days by microdilution method; type: functional; details: MTCC 227, 48 h, time 2 day
Aspergillus brasiliensis [13] = experiment: Antifungal activity against Aspergillus brasiliensis MTCC 1344 incubated for 7 days by microdilution method; type: functional; details: MTCC 1344, 168 h, time 7 day
Candida albicans [14] = experiment: Antifungal activity against Candida albicans ATCC 2091 incubated for 24 hrs by broth microdilution method; type: functional
Aspergillus niger [15] = experiment: Antibacterial activity against Aspergillus niger MTCC 8189 by serial dilution method; type: functional
Aspergillus niger [16] = experiment: Antibacterial activity against Aspergillus niger ATCC 9029 incubated for 24 hrs by broth microdilution method; type: functional
Candida albicans [17] = experiment: Antifungal activity against Candida albicans ATCC 50193 incubated for 24 hrs by microdilution method; type: functional
Aspergillus brasiliensis [18] = experiment: Antifungal activity against Aspergillus brasiliensis ATCC 16404 incubated for 24 hrs by microdilution method; type: functional
Candida albicans [19] = experiment: Antibacterial activity against Candida albicans MTCC 227 by serial dilution method; type: functional
Pseudomonas aeruginosa [20] = experiment: Antibacterial activity against Pseudomonas aeruginosa ATCC 27853 assessed as inhibition zone; type: functional
Escherichia coli [21] = experiment: Antibacterial activity against Escherichia coli ATCC 25922 assessed as inhibition zone; type: functional
Staphylococcus aureus [22] = experiment: Antibacterial activity against Staphylococcus aureus ATCC 25923 assessed as inhibition zone; type: functional
Bacillus spizizenii [23] = experiment: Antibacterial activity against Bacillus subtilis ATCC 6633 assessed as inhibition zone; type: functional
Proteus vulgaris [24] = experiment: Antibacterial activity against Proteus vulgaris ATCC 4636 assessed as inhibition zone; type: functional
Staphylococcus aureus [25] = experiment: Antibacterial activity against methicillin-resistant Staphylococcus aureus; type: functional
Staphylococcus aureus [26] = experiment: Antibacterial activity against inducibly-resistant Staphylococcus aureus; type: functional
Staphylococcus aureus [27] = experiment: Antibacterial activity against constitutively-resistant Staphylococcus aureus; type: functional

SMILES: COC(=O)c1ccc(-n2nc(N)c(C(=O)NCCNC(=O)c3nn(-c4ccc(C(=O)OC)cc4)nc3N)n2)cc1
- IC50 (HepG2): 11.6 µg/mL (≈ 21.1 µM)
- zone of inhibition at 5000 µg/mL (Geotrichum candidum): 20.4 mm
- zone of inhibition at 5000 µg/mL (Escherichia coli [1]): 20.4 mm
- zone of inhibition at 5000 µg/mL (Aspergillus fumigatus): 20.4 mm
- zone of inhibition at 5000 µg/mL (Staphylococcus aureus [2]): 20.4 mm
- zone of inhibition at 5000 µg/mL (Bacillus cereus): 20.4 mm
- zone of inhibition at 5000 µg/mL (Pseudomonas aeruginosa [3]): 20.4 mm
- zone of inhibition at 5000 µg/mL (Candida albicans [4]): 20.4 mm
- zone of inhibition at 5000 µg/mL [5]: 20.4 mm

SMILES: C[C@@H]1[C@H](O)[C@@H](C)/C=C/C=C/C=C/C=C/C=C/C=C/C=C/[C@H](O[C@@H]2O[C@H](C)[C@@H](O)[C@H](N)[C@@H]2O)C[C@@H]2O[C@](O)(C[C@@H](O)C[C@@H](O)[C@H](O)CC[C@@H](O)C[C@@H](O)CC(=O)O[C@H]1C)C[C@H](O)[C@H]2C(=O)O [AMPHOTERICIN B]
- zone of inhibition at 5000 µg/mL (Geotrichum candidum): 19.7 mm
- zone of inhibition at 5000 µg/mL (Aspergillus fumigatus): 19.7 mm
- zone of inhibition at 5000 µg/mL (Candida albicans [4]): 19.7 mm
- zone of inhibition at 5000 µg/mL [5]: 19.7 mm

SMILES: O=C(/C=C1\C(=O)N(Cc2cn(Cc3ccccc3)nn2)c2ccccc21)c1cc(Cl)cc(Cl)c1OCc1cn(Cc2ccccc2)nn1
- MIC (Staphylococcus aureus [6]): 1.56 µg/mL (≈ 2.31 µM)
- MIC (Proteus vulgaris [7]): 1.56 µg/mL (≈ 2.31 µM)
- MIC (Escherichia coli [8]): 1.56 µg/mL (≈ 2.31 µM)
- MIC (Bacillus spizizenii [9]): 1.56 µg/mL (≈ 2.31 µM)

SMILES: O=C(Cn1cc(COc2ccc(OCc3cn(CC(=O)Nc4ccccc4)nn3)cc2)nn1)Nc1ccccc1
- MIC (Pseudomonas aeruginosa [10]): 0.0928 µM (≈ 0.05 µg/mL)
- MIC (Bacillus subtilis): 0.0928 µM (≈ 0.05 µg/mL)
- MIC (Staphylococcus aureus [11]): 0.0928 µM (≈ 0.05 µg/mL)
- MIC (Candida albicans [12]): 0.0928 µM (≈ 0.05 µg/mL)
- MIC (Aspergillus brasiliensis [13]): 0.0928 µM (≈ 0.05 µg/mL)

SMILES: OC(Cn1cncn1)(Cn1cncn1)c1ccc(F)cc1F [FLUCONAZOLE]
- MIC (Candida albicans [14]): 8 µg/mL (≈ 26.1 µM)
- MIC (Aspergillus niger [15]): 5.1 µM (≈ 1.56 µg/mL)
- MIC (Aspergillus niger [16]): 8 µg/mL (≈ 26.1 µM)
- MIC (Candida albicans [17]): 1 µg/mL (≈ 3.27 µM)
- MIC (Aspergillus brasiliensis [18]): 4 µg/mL (≈ 13.1 µM)
- MIC (Candida albicans [19]): 5.1 µM (≈ 1.56 µg/mL)
- MIC (Candida albicans [12]): 0.0408 µM (≈ 0.0125 µg/mL)
- MIC (Aspergillus brasiliensis [13]): 0.0716 µM (≈ 0.0219 µg/mL)

SMILES: CC(O)C(=O)O.CCOc1ccc2nc3cc(N)ccc3c(N)c2c1
- inhibition zone (IZ) (Pseudomonas aeruginosa [20]): 12 mm
- inhibition zone (IZ) (Escherichia coli [21]): 12 mm
- inhibition zone (IZ) (Staphylococcus aureus [22]): 12 mm
- inhibition zone (IZ) (Bacillus spizizenii [23]): 12 mm
- inhibition zone (IZ) (Proteus vulgaris [24]): 12 mm

SMILES: O=C(/C=C1\C(=O)N(Cc2cn(Cc3ccccc3)nn2)c2ccc(Br)cc21)c1cc(Cl)cc(Cl)c1OCc1cn(Cc2ccccc2)nn1
- MIC (Staphylococcus aureus [6]): 1.56 µg/mL (≈ 2.06 µM)
- MIC (Proteus vulgaris [7]): 1.56 µg/mL (≈ 2.06 µM)
- MIC (Escherichia coli [8]): 1.56 µg/mL (≈ 2.06 µM)
- MIC (Bacillus spizizenii [9]): 1.56 µg/mL (≈ 2.06 µM)

SMILES: CO[C@@H]1[C@@H](O[C@@H]2O[C@H](C)[C@@H](O[C@H]3C[C@@](C)(O)[C@@H](OC(=O)CCCc4cn(CSc5ccccc5)nn4)[C@H](C)O3)[C@H](N(C)C)[C@H]2O)[C@H]2CC(O[Si](C)(C)C(C)(C)C)O[C@@H]1CC(=O)O[C@H](C)CC/C=C/C=C/[C@H](O[C@H]1CC[C@H](N(C)C)[C@@H](C)O1)[C@H](C)C2 (stereo not given in full)
- MIC (Staphylococcus aureus [25]): 8 µg/mL (≈ 6.5 µM)
- MIC (Staphylococcus aureus [26]): 8 µg/mL (≈ 6.5 µM)
- MIC (Staphylococcus aureus [27]): 8 µg/mL (≈ 6.5 µM)

SMILES: O=C(OCc1cn(Cc2cccc(F)c2)nn1)c1cccc2c(=O)c3ccccc3[nH]c12
- inhibition zone (IZ) (Pseudomonas aeruginosa [20]): 9.5 mm
- inhibition zone (IZ) (Escherichia coli [21]): 9.5 mm
- inhibition zone (IZ) (Staphylococcus aureus [22]): 9.5 mm
- inhibition zone (IZ) (Bacillus spizizenii [23]): 9.5 mm
- inhibition zone (IZ) (Proteus vulgaris [24]): 9.5 mm

SMILES: CO[C@@H]1[C@@H](O[C@@H]2O[C@H](C)[C@@H](O[C@H]3C[C@@](C)(O)[C@@H](OC(=O)CCCc4cn(C56CC7CC(CC(C7)C5)C6)nn4)[C@H](C)O3)[C@H](N(C)C)[C@H]2O)[C@H]2CC(O[Si](C)(C)C(C)(C)C)O[C@@H]1CC(=O)O[C@H](C)CC/C=C/C=C/[C@H](O[C@H]1CC[C@H](N(C)C)[C@@H](C)O1)[C@H](C)C2 (stereo not given in full)
- MIC (Staphylococcus aureus [25]): 8 µg/mL (≈ 6.44 µM)
- MIC (Staphylococcus aureus [26]): 8 µg/mL (≈ 6.44 µM)
- MIC (Staphylococcus aureus [27]): 8 µg/mL (≈ 6.44 µM)
